Measured values reported in patent publication US20160010142A1, “Compositions and Methods For Analysis of C02 Absorption” (NOVOZYMES NORTH AMERICA, INC., priority 2013, published 2016).

Assays:
carbonic anhydrase [1] = assay: Carbonic anhydrase activity before and after zinc addition, bicine/cresol red CO2 hydration assay; assay type: biochemical, microbial origin; details: for fold improvement: activity with 3.5 mM zinc salt versus assay sample without zinc; for Activity (U/mL): zinc deficient enzyme sample incubated with 3.5 mM zinc salt overnight at room temperature
Method: A solution containing 25 mM bicine and 123 micromolar (0.05 g/L) cresol-red (pH 8.3) is prepared as the assay reagent. The assay substrate is prepared at room temperature by bubbling CO2 gas into either a 125 mL Erlenmeyer flask containing 100 mL deionized H2O (dH2O) or a 50 ml plastic conical tube containing 30 mL dH2O. Bubbling proceeds for at least 10 minutes to yield a saturated CO2(aq) solution ([CO2]˜30 mM (Kernohan, J. C. 1965. Biochim. Biophys. Acta 96: 304). Carbonic anhydrase test samples are diluted for the assay using the assay reagent as diluent. A set of assay samples, made by 5- or 6-×0.7-fold serial dilutions of the enzyme test sample, are loaded onto a 96-well microtiter plate. Eight replicate wells each containing 100 microliters of each dilution are plated. Corresponding blank wells are loaded on the same plate in alternating columns with the assay sample wells. Blank wells contain either assay reagent alone or a 5- or 6-×0.7-fold serial dilution set of a modified enzyme test sample, where the modification involves removing or inactivating the active enzyme of the test sample.
The plate is inserted into a temperature controlled plate reader equipped with a liquid dispenser unit with the inject head immersed in the aqueous CO2 substrate solution. Initial absorbance of a single well is collected, followed by injection of 100 microliters of aqueous CO2 substrate into a single well and kinetic absorbance reads are collected at fixed time intervals (e.g., every 0.5 seconds) for that well such that the rate of absorbance change can be measured and used to indicate the rate of CO2 hydration. After approximately 5-10 seconds the reaction is no longer monitored and the process is repeated for all subsequent wells. Data automatically collected on the instrument is saved or exported in Microsoft Excel file format and copy/pasted into the Microsoft Excel automated data processing template. The data collected for each well is automatically checked for a linear slope (change in absorbance with change in time) within a selected “assay window” indicating the enzyme in that well was saturated with substrate during the assay window. The assay window is a sub-set of data points collected between selected time points for each well. The assay window for all wells in this example are the same. The slope of the data collected from an individual well assay window is called the “assay slope.” Wells passing the “linearity test” are averaged for a particular dilution to determine the “average assay slope” for that particular dilution. Next, a T-test between blank and assay sample replicates determines the probability that the differences between the two data sets could arise by chance, improving data quality by ensuring that data from an excessively diluted assay sample are not included in calculations of enzyme activity. If at least 3 dilution sets pass the T-test (T-test value <0.05), and at least 4 out of 8 replicate wells for those dilutions pass the “linearity test,” the average assay slope (change in absorbance per unit time) for each accepted dilution is plotted versus the amount of enzyme present in that dilution. […]
Carbonic anhydrase activity improvement was evaluated by measuring enzyme activity before and after zinc addition according to the method of Example 1. […]

carbonic anhydrase [2] = assay: Effect of salt on carbonic anhydrase activity, 50 mM bicine/cresol red assay; assay type: biochemical; details: form of the enzyme that precipitates in the absence of salt
Method: The measurement of CO2 absorption enhancement by carbonic anhydrase was performed as described in Example 1 except the assay reagent contains 50 mM bicine at pH 8.65+/−0.05. This embodiment of the assay reagent delays the assay response relative to Example 1. Such a delay expands the “assay window” (from 5.1 to 6.7 seconds, inclusive, in Example 1; to 6.8 to 9.9 seconds, inclusive), and permits analysis of more data points.
When required, such as for stability of certain forms of carbonic anhydrase, additional compounds, such as salts, for example sodium chloride, can be added to the assay reagent. This embodiment of the assay reagent leads to an improved measure of carbonic anhydrase activity for forms of the enzyme which, in the absence of salt, may aggregate, precipitate, or otherwise change their form and alter the result in the assay measurement of CO2 absorption enhancement. The required concentration of salt is expected to be enzyme dependent, and the assay can be used to determine the optimal salt concentration required for optimal enzyme activity determination.
FIG. 3 presents the effect of salt concentration on the determination of carbonic anhydrase activity for a form of the enzyme that precipitates in the absence of salt.

[3] = cited from earlier work
[4] = compared to other indicators with similar pKas, such as phenol red; cited from earlier work

| Structure (SMILES) | fold improvement (carbonic anhydrase [1]) | pKa [3] | further results |
| --- | --- | --- | --- |
| O.O.O.O.O.O.O.O=S(=O)([O-])[O-].[Zn+2] [ZnSO4 × 7H2O, ZnSO4×7 H2O] | 10 (ZnSO4 × 7H2O) fold | – | Activity (U/mL) (carbonic anhydrase [1]): 6400 (ZnSO4 × 7H2O) U/mL |
| [Cl-].[Na+] [NaCl, sodium chloride] | – | – | effect of salt addition on activity of a carbonic anhydrase test sample (carbonic anhydrase [2]): improve the activity |
| CCC1(CC)C(=O)NC(=O)NC1=O [Veronal] | – | 8.0 | – |
| [Cl-].[Cl-].[Zn+2] [ZnCl2] | 9 (ZnCl2) fold | – | Activity (U/mL) (carbonic anhydrase [1]): 5800 (ZnCl2) U/mL |
| Cc1cc(C2(c3ccc(O)c(C)c3)OS(=O)(=O)c3ccccc32)ccc1O [cresol red, o-Cresolsulfonephthalein] | – | 8.32 | water solubility [4]: relatively high water solubility |
| NC(CO)(CO)CO [Tris] | – | 8.0 | – |
| [Zn] [zinc] | around 10 fold | – | – |
